PubChem BioAssay (NCI)
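Growth conditions: 96-well plates. Treatment: test compound, 48 hours, 5 concentrations. Analysis: linear interpolation between bracketing concentrations; unreached endpoints set to highest concentration. TGI marks complete inhibition of growth.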

Legend:
Assay in all cases: NCI-60 cell line screen, 48 h
RPMI-8226 leukemia = test system: RPMI-8226 leukemia
CCRF-CEM leukemia = test system: CCRF-CEM leukemia
SK-MEL-5 melanoma = test system: SK-MEL-5 melanoma
HOP-92 NSCLC = test system: HOP-92 NSCLC
K-562 leukemia = test system: K-562 leukemia
NCI-H226 lung = test system: NCI-H226 lung
OVCAR-8 ovarian = test system: OVCAR-8 ovarian
SNB-78 CNS = test system: SNB-78 CNS
DLD-1 colon = test system: DLD-1 colon
HT29 colon = test system: HT29 colon
A498 renal = test system: A498 renal
XF 498 CNS = test system: XF 498 CNS
786-0 renal = test system: 786-0 renal
DMS 273 small cell lung = test system: DMS 273 small cell lung
SK-OV-3 ovarian = test system: SK-OV-3 ovarian
DMS 114 small cell lung = test system: DMS 114 small cell lung
SK-MEL-28 melanoma = test system: SK-MEL-28 melanoma
SF-268 CNS = test system: SF-268 CNS
M19-MEL melanoma = test system: M19-MEL melanoma
SNB-75 CNS = test system: SNB-75 CNS
UACC-257 melanoma = test system: UACC-257 melanoma
UACC-62 melanoma = test system: UACC-62 melanoma
NCI-H23 lung = test system: NCI-H23 lung
HOP-18 NSCLC = test system: HOP-18 NSCLC
SR leukemia = test system: SR leukemia
HCC-2998 colon = test system: HCC-2998 colon
MOLT-4 leukemia = test system: MOLT-4 leukemia
SF-295 CNS = test system: SF-295 CNS
MALME-3M melanoma = test system: MALME-3M melanoma
COLO 205 colon = test system: COLO 205 colon
TK-10 renal = test system: TK-10 renal
NCI-H522 lung = test system: NCI-H522 lung
NCI-H460 lung = test system: NCI-H460 lung
EKVX NSCLC = test system: EKVX NSCLC
KM20L2 colon = test system: KM20L2 colon
OVCAR-4 ovarian = test system: OVCAR-4 ovarian
OVCAR-5 ovarian = test system: OVCAR-5 ovarian
A549 NSCLC = test system: A549 NSCLC
SNB-19 CNS = test system: SNB-19 CNS
HCT-116 colon = test system: HCT-116 colon
HCT-15 colon = test system: HCT-15 colon
M14 melanoma = test system: M14 melanoma
SF-539 CNS = test system: SF-539 CNS
OVCAR-3 ovarian = test system: OVCAR-3 ovarian
SW-620 colon = test system: SW-620 colon
SK-MEL-2 melanoma = test system: SK-MEL-2 melanoma
U251 CNS = test system: U251 CNS
RXF-631 renal = test system: RXF-631 renal
HL-60(TB) leukemia = test system: HL-60(TB) leukemia
KM12 colon = test system: KM12 colon
IGROV1 ovarian = test system: IGROV1 ovarian
HOP-62 NSCLC = test system: HOP-62 NSCLC
UO-31 renal = test system: UO-31 renal
ACHN renal = test system: ACHN renal
CAKI-1 renal = test system: CAKI-1 renal
HS 578T breast = test system: HS 578T breast
MDA-MB-231 breast = test system: MDA-MB-231 breast
RXF 393 renal = test system: RXF 393 renal
DU-145 prostate = test system: DU-145 prostate
NCI/ADR-RES ovarian = test system: NCI/ADR-RES ovarian
BT-549 breast = test system: BT-549 breast
MDA-N = test system: MDA-N
LOX IMVI melanoma = test system: LOX IMVI melanoma
MCF7 breast = test system: MCF7 breast
PC-3 prostate = test system: PC-3 prostate
T-47D breast = test system: T-47D breast
MDA-MB-435 = test system: MDA-MB-435
SN12C renal = test system: SN12C renal

Measured: TGI

O=C(O)CSc1n[nH]c(-c2ccc(O)cc2)n1
not listed: HS 578T breast | MDA-MB-231 breast | RXF 393 renal | DU-145 prostate | NCI/ADR-RES ovarian | BT-549 breast | MDA-N | LOX IMVI melanoma | MCF7 breast | PC-3 prostate | T-47D breast | MDA-MB-435 | SN12C renal
> 100 µM: all other assays above

CCOC(C[Se]CC(OCC)OCC)OCC
38.8 µM: SNB-75 CNS
38.4 µM: U251 CNS
59.4 µM: LOX IMVI melanoma
85.8 µM: RXF 393 renal
94 µM: BT-549 breast
46.4 µM: NCI-H226 lung
95.9 µM: CCRF-CEM leukemia
85.7 µM: DU-145 prostate
62.4 µM: SF-539 CNS
93.2 µM: IGROV1 ovarian
76.5 µM: HL-60(TB) leukemia
45.9 µM: HS 578T breast
29.6 µM: SK-MEL-5 melanoma
not listed: SNB-78 CNS | DLD-1 colon | XF 498 CNS | DMS 273 small cell lung | DMS 114 small cell lung | SF-268 CNS | M19-MEL melanoma | HOP-18 NSCLC | KM20L2 colon | RXF-631 renal | HOP-62 NSCLC | SN12C renal
> 100 µM: all other assays above

O=C(Nc1sccc1S(=O)(=O)c1ccccc1)c1cccnc1
> 59.3 µM: NCI-H226 lung
18 µM: COLO 205 colon
> 24.5 µM: CCRF-CEM leukemia
3.63 µM: MDA-N
38.2 µM: SF-539 CNS
> 52.7 µM: NCI/ADR-RES ovarian
8.36 µM: MDA-MB-435
> 89.1 µM: SK-OV-3 ovarian
> 91 µM: SNB-75 CNS
> 26.3 µM: SK-MEL-5 melanoma
> 80.2 µM: NCI-H23 lung
4.28 µM: HL-60(TB) leukemia
> 94.2 µM: IGROV1 ovarian
> 86.1 µM: BT-549 breast
> 85.4 µM: NCI-H522 lung
not listed: SNB-78 CNS | DLD-1 colon | A498 renal | XF 498 CNS | DMS 273 small cell lung | DMS 114 small cell lung | M19-MEL melanoma | HOP-18 NSCLC | KM20L2 colon | RXF-631 renal
> 100 µM: all other assays above
